# In ChEMBL document CHEMBL1127245, “The effect of heteroatom substitution on a series of phosphonate inhibitors of neutral endopeptidase 24.11” (Bioorg Med Chem Lett, 1994):
# Target: T1, Neprilysin (Rattus norvegicus, UniProt P07861)
# T1 sequence (P07861 whole entry): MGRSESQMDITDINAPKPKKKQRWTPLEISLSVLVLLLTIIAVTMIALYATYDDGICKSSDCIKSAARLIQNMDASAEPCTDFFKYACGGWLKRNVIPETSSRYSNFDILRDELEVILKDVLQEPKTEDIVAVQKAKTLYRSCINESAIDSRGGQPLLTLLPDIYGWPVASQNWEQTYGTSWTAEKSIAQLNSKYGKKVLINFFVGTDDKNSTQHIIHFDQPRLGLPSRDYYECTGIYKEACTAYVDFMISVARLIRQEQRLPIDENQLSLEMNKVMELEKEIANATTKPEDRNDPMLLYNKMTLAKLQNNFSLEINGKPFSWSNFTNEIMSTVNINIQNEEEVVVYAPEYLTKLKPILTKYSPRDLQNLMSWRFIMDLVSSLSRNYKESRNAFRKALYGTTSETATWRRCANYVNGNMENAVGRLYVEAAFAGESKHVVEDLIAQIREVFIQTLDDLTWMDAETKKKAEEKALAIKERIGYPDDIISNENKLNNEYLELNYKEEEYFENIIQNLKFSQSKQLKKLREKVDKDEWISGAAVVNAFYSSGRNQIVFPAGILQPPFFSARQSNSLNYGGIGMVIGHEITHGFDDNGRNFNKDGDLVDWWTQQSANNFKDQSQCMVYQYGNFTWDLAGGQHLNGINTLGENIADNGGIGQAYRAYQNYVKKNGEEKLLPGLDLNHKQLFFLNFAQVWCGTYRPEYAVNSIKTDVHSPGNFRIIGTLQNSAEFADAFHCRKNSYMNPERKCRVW
# Assay: In vitro inhibitory activity against neutral endopeptidase (NEP 24.11) from rat kidney cortex membranes
row,SMILES,IC50
1,O=C(O)CCNC(=O)C(CCP(=O)(O)O)Cc1ccc(-c2ccccc2)cc1 (stereo not given),1 µM
2,O=C(O)CCNC(=O)C(Cc1ccc(-c2ccccc2)cc1)SCP(=O)(O)O (stereo not given),0.797 µM
3,O=C(O)CCNC(=O)C(Cc1ccc(-c2ccccc2)cc1)S(=O)(=O)CP(=O)(O)O (stereo not given),> 10 µM

# Now those with a lower IC50, led by results:
row,IC50,SMILES
1,0.0095 µM,O=C(O)CCNC(=O)C(Cc1ccc(-c2ccccc2)cc1)OCP(=O)(O)O (stereo not given)
2,0.0016 µM,O=C(O)CCNC(=O)[C@H](Cc1ccc(-c2ccccc2)cc1)NCP(=O)(O)O
